Earlier results on four molecules are cited in patent US20070166321A1, “Compositions and Methods for Reducing Cholesterol and Inflammation” (priority 2006, published 2007).

Data set [1] has as its system 12-O-tetradecanoylphorbol-13 acetate (TPA) induced inflammation. Particulars: for 50%-inflammation reduction index ID50: TPA-induced inflammation.
Assay in data set [2]: not given
This is another data set of the same source.

For data set [3] the following is noted: in vivo.

Entries after “also recorded” stand apart in the source; their conditions may differ.

Consider `C[C@H]1[C@H](C)CC[C@]2(C(=O)O)CC[C@]3(C)C(=CC[C@@H]4[C@@]5(C)C[C@@H](O)[C@H](O)C(C)(C)[C@@H]5CC[C@]43C)[C@H]12` [corosolic acid], for which the “effect on glucose levels of non-diabetics” value is “does not significantly reduce glucose levels”. Also, the “50%-inflammation reduction index ID50” value in data set [1] was 0.03 mg. Further, the “inhibition of TPA induced inflammation, potency comparison” value in data set [1] (compared with reference antiinflammatory drugs) was “potency similar to the antiinflammatory drug indomethasin; also recorded: potency similar to the antiinflammatory drugs indomethasin and hydrocortisone”. In addition, the solubility in water result in data set [2] is reported as “low solubility in water”.
As for `CS(=O)(=O)c1ccc(C2=C(c3ccccc3)C(=O)OC2)cc1` [Vioxx], in data set [3], the “increase of cardiovascular disease” value is on record as approximately 4 fold.
For `C[C@]12CCC(=O)C=C1CC[C@@H]1[C@@H]2[C@@H](O)C[C@@]2(C)[C@H]1CC[C@]2(O)C(=O)CO` [hydrocortisone], the “50%-inflammation reduction index ID50” value in data set [1] was 0.03 mg.
Take `COc1ccc2c(c1)c(CC(=O)O)c(C)n2C(=O)c1ccc(Cl)cc1` [indomethacin]: the “50%-inflammation reduction index ID50” value in data set [1] was 0.3 mg.
